Values quoted from earlier work as cited in patent US6901278B1, “Methods for reducing the risk of breast cancer in and improving the health of women” (priority 2002, dated 2005).

Settings: following first-pass hepatic metabolism

## C[C@]12CC[C@@H]3c4ccc(O)cc4CC[C@H]3[C@@H]1CC[C@@H]2O [Estradiol, 17β-estradiol]
  bioavailable fraction of oral estradiol: 5%
